Assay results reported in the NIST ThermoML archive (doi:10.1021/je060082s).
“And” between values parts separate entries of the source, which are not always exact repeats. Identical values can stand only once. ± gives the expanded uncertainty stated by the source.

Settings: Liquid; for mass density: 101.33 kPa, Vibrating tube method

CCCCCCCC[n+]1ccn(C)c1.F[P-](F)(F)(F)(F)F [1-octyl-3-methylimidazolium hexafluorophosphate]
Settings	mass density
273.1 K	1256.13 ± 3.3 kg/m3
278.1 K	1252.25 ± 3.3 kg/m3
283.1 K	1248.38 ± 3.3 kg/m3
288.15 K	1244.52 ± 3.3 kg/m3
293.15 K	1240.68 ± 3.3 kg/m3
298.15 K	1236.84 ± 3.3 kg/m3 and 1236.75 ± 3.3 kg/m3
303.15 K	1233.01 ± 3.2 kg/m3
313.15 K	1225.34 ± 3.2 kg/m3
323.15 K	1217.7 ± 3.2 kg/m3 and 1217.68 ± 3.2 kg/m3
333.15 K	1210.29 ± 3.2 kg/m3
343.15 K	1202.88 ± 3.2 kg/m3
353.15 K	1195.49 ± 3.1 kg/m3
363.15 K	1188.13 ± 3.1 kg/m3

Settings	viscosity
273.15 K, 100 kPa	6410 ± 160 mPa·s
278.15 K, 100 kPa	3889 ± 97 mPa·s
283.15 K, 100 kPa	2439 ± 61 mPa·s
293.15 K, 100 kPa	1065 ± 27 mPa·s
298.15 K, 100 kPa	734.4 ± 18 mPa·s and 731.6 ± 18 mPa·s
298.15 K, 10200 kPa	853.7 ± 21 mPa·s
298.15 K, 24600 kPa	1041 ± 26 mPa·s
298.15 K, 39900 kPa	1299 ± 33 mPa·s
303.15 K, 100 kPa	519.3 ± 13 mPa·s
308.15 K, 100 kPa	374.6 ± 9.6 mPa·s and 370.9 ± 9.5 mPa·s
308.15 K, 5500 kPa	404.3 ± 10 mPa·s
308.15 K, 9900 kPa	430.2 ± 11 mPa·s
308.15 K, 25600 kPa	531.2 ± 13 mPa·s
308.15 K, 48400 kPa	716.3 ± 18 mPa·s
308.15 K, 74900 kPa	1008 ± 25 mPa·s
313.15 K, 100 kPa	276.8 ± 7.2 mPa·s
323.15 K, 100 kPa	158 ± 4.5 mPa·s and 159 ± 4.5 mPa·s and 159.2 ± 4.5 mPa·s
323.15 K, 24800 kPa	217.5 ± 5.8 mPa·s
323.15 K, 26300 kPa	222 ± 5.9 mPa·s
323.15 K, 49900 kPa	295 ± 7.7 mPa·s
323.15 K, 60500 kPa	348.9 ± 9 mPa·s
323.15 K, 74800 kPa	395 ± 10 mPa·s
323.15 K, 76000 kPa	404.2 ± 10 mPa·s
323.15 K, 99700 kPa	524.6 ± 13 mPa·s
333.15 K, 100 kPa	97 ± 3.2 mPa·s and 97.9 ± 3.2 mPa·s and 97.8 ± 3.2 mPa·s
333.15 K, 13500 kPa	115.2 ± 3.5 mPa·s
333.15 K, 30300 kPa	140.6 ± 4 mPa·s
333.15 K, 50400 kPa	176.2 ± 4.8 mPa·s
333.15 K, 75100 kPa	230.4 ± 6.1 mPa·s
333.15 K, 100400 kPa	300.7 ± 7.8 mPa·s
333.15 K, 125200 kPa	387.3 ± 9.9 mPa·s
343.15 K, 100 kPa	63.7 ± 2.6 mPa·s [middle of 4 runs]
343.15 K, 10000 kPa	70 ± 2.7 mPa·s
343.15 K, 21300 kPa	81 ± 2.8 mPa·s
343.15 K, 51800 kPa	112.7 ± 3.5 mPa·s
343.15 K, 72900 kPa	138.7 ± 4 mPa·s
343.15 K, 100300 kPa	182.6 ± 5 mPa·s
343.15 K, 125900 kPa	233.7 ± 6.2 mPa·s
343.15 K, 148800 kPa	296.2 ± 7.7 mPa·s
343.15 K, 175900 kPa	378.4 ± 9.7 mPa·s
353.15 K, 100 kPa	43 ± 2.3 mPa·s

CCCCCCCC[n+]1ccn(C)c1.F[B-](F)(F)F [1-methyl-3-octylimidazolium tetrafluoroborate]
Settings	mass density [kg/m3]
273.1 K	1120.96 ± 3
278.1 K	1117.48 ± 2.9
283.1 K	1114.01 ± 2.9
288.15 K	1110.55 ± 2.9
293.15 K	1107.11 ± 2.9
298.15 K	1103.68 ± 2.9
303.15 K	1100.24 ± 2.9
313.15 K	1093.37 ± 2.9
323.15 K	1086.56 ± 2.9
333.15 K	1079.83 ± 2.8
343.15 K	1073.18 ± 2.8
353.15 K	1066.6 ± 2.8
363.15 K	1060.08 ± 2.8

Settings	viscosity
273.15 K, 100 kPa	2291 ± 57 mPa·s and 2289 ± 57 mPa·s
278.15 K, 100 kPa	1477 ± 37 mPa·s and 1478 ± 37 mPa·s
283.15 K, 100 kPa	982 ± 25 mPa·s
288.15 K, 100 kPa	673 ± 17 mPa·s
293.15 K, 100 kPa	473 ± 12 mPa·s
298.15 K, 100 kPa	341 ± 9 mPa·s
298.15 K, 11200 kPa	393 ± 10 mPa·s
298.15 K, 26200 kPa	475.7 ± 12 mPa·s
298.15 K, 50500 kPa	638.3 ± 16 mPa·s
298.15 K, 51500 kPa	645.9 ± 16 mPa·s
298.15 K, 60800 kPa	720.1 ± 18 mPa·s
298.15 K, 80200 kPa	902.3 ± 23 mPa·s
298.15 K, 100200 kPa	1130 ± 28 mPa·s
298.15 K, 116700 kPa	1359 ± 34 mPa·s
298.15 K, 117500 kPa	1371 ± 34 mPa·s
303.15 K, 100 kPa	251 ± 7 mPa·s
308.15 K, 100 kPa	188.4 ± 5.1 mPa·s [middle of 5 runs]
308.15 K, 800 kPa	190.1 ± 5.2 mPa·s
308.15 K, 2900 kPa	194.9 ± 5.3 mPa·s
308.15 K, 5600 kPa	204.3 ± 5.5 mPa·s
308.15 K, 10900 kPa	214.2 ± 5.7 mPa·s
308.15 K, 26000 kPa	255.1 ± 6.7 mPa·s
308.15 K, 50700 kPa	337.1 ± 8.7 mPa·s
308.15 K, 76200 kPa	444 ± 11 mPa·s
308.15 K, 100300 kPa	571.1 ± 14 mPa·s
308.15 K, 124400 kPa	731.7 ± 18 mPa·s
308.15 K, 150200 kPa	945.5 ± 24 mPa·s
308.15 K, 200100 kPa	1527 ± 38 mPa·s
313.15 K, 100 kPa	144.1 ± 4.1 mPa·s
323.15 K, 100 kPa	88.8 ± 3 mPa·s and 88.7 ± 3 mPa·s
323.15 K, 700 kPa	89.2 ± 3 mPa·s
323.15 K, 4900 kPa	93.5 ± 3.1 mPa·s
323.15 K, 10500 kPa	99.3 ± 3.2 mPa·s
323.15 K, 25800 kPa	118.2 ± 3.6 mPa·s
323.15 K, 50800 kPa	150.1 ± 4.3 mPa·s
323.15 K, 75700 kPa	191.2 ± 5.2 mPa·s
323.15 K, 100600 kPa	241.8 ± 6.4 mPa·s
323.15 K, 125500 kPa	303.1 ± 7.8 mPa·s
323.15 K, 149900 kPa	376.5 ± 9.6 mPa·s
323.15 K, 175500 kPa	469.8 ± 12 mPa·s
323.15 K, 199800 kPa	577.3 ± 15 mPa·s
333.15 K, 100 kPa	57.8 ± 2.5 mPa·s
333.15 K, 10800 kPa	64.4 ± 2.6 mPa·s
333.15 K, 25700 kPa	74.6 ± 2.7 mPa·s
333.15 K, 50300 kPa	94.3 ± 3.1 mPa·s
333.15 K, 75600 kPa	118.7 ± 3.6 mPa·s
333.15 K, 100500 kPa	147.7 ± 4.2 mPa·s
333.15 K, 125300 kPa	182.5 ± 5 mPa·s
333.15 K, 150200 kPa	224.3 ± 6 mPa·s
333.15 K, 175100 kPa	274.4 ± 7.1 mPa·s
333.15 K, 200000 kPa	334.1 ± 8.6 mPa·s
343.15 K, 100 kPa	39.4 ± 2.2 mPa·s
348.15 K, 100 kPa	32.8 ± 2.2 mPa·s
348.15 K, 300 kPa	32.7 ± 2.2 mPa·s
348.15 K, 1600 kPa	33.2 ± 2.2 mPa·s
348.15 K, 3100 kPa	33.7 ± 2.2 mPa·s
348.15 K, 5400 kPa	34.4 ± 2.2 mPa·s
348.15 K, 10200 kPa	36 ± 2.2 mPa·s
348.15 K, 25600 kPa	41.4 ± 2.3 mPa·s
348.15 K, 50300 kPa	51.5 ± 2.4 mPa·s
348.15 K, 75600 kPa	63.6 ± 2.6 mPa·s
348.15 K, 100500 kPa	77.7 ± 2.8 mPa·s
348.15 K, 125400 kPa	94.3 ± 3.1 mPa·s
348.15 K, 150400 kPa	114.3 ± 3.5 mPa·s
348.15 K, 175300 kPa	136.8 ± 4 mPa·s
348.15 K, 200200 kPa	163.6 ± 4.6 mPa·s
348.15 K, 224200 kPa	193.7 ± 5.2 mPa·s
353.15 K, 100 kPa	28.1 ± 2.1 mPa·s
